Results: US10344060B2 (priority 2013, dated 2019)

What was measured:
Assay in all cases: cell-based
[1] = molecular target: hNav1.7 (Homo sapiens, UniProt Q15858); conditions: read-out: IC50 (μM) Nav1.7
[2] = molecular target: hNav1.5 (Homo sapiens, UniProt Q14524); conditions: IonWorks Quattro; Table 6; read-out: IC50 (μM) Nav1.5
[3] = molecular target: hNav1.3 (Homo sapiens, UniProt Q9NY46); conditions: IonWorks Quattro; Table 6; read-out: IC50 (μM) Nav1.3
[4] = molecular target: hNav1.4 (Homo sapiens, UniProt P35499); assay type: cell-based; conditions: Table 6; for IC50: IonWorks Quattro, read-out: IC50 (μM) Nav1.4; for Nav1.4/Nav1.7: ratio of IonWorks Quattro IC50 values

Sequence of hNav1.5 (Q14524 whole entry): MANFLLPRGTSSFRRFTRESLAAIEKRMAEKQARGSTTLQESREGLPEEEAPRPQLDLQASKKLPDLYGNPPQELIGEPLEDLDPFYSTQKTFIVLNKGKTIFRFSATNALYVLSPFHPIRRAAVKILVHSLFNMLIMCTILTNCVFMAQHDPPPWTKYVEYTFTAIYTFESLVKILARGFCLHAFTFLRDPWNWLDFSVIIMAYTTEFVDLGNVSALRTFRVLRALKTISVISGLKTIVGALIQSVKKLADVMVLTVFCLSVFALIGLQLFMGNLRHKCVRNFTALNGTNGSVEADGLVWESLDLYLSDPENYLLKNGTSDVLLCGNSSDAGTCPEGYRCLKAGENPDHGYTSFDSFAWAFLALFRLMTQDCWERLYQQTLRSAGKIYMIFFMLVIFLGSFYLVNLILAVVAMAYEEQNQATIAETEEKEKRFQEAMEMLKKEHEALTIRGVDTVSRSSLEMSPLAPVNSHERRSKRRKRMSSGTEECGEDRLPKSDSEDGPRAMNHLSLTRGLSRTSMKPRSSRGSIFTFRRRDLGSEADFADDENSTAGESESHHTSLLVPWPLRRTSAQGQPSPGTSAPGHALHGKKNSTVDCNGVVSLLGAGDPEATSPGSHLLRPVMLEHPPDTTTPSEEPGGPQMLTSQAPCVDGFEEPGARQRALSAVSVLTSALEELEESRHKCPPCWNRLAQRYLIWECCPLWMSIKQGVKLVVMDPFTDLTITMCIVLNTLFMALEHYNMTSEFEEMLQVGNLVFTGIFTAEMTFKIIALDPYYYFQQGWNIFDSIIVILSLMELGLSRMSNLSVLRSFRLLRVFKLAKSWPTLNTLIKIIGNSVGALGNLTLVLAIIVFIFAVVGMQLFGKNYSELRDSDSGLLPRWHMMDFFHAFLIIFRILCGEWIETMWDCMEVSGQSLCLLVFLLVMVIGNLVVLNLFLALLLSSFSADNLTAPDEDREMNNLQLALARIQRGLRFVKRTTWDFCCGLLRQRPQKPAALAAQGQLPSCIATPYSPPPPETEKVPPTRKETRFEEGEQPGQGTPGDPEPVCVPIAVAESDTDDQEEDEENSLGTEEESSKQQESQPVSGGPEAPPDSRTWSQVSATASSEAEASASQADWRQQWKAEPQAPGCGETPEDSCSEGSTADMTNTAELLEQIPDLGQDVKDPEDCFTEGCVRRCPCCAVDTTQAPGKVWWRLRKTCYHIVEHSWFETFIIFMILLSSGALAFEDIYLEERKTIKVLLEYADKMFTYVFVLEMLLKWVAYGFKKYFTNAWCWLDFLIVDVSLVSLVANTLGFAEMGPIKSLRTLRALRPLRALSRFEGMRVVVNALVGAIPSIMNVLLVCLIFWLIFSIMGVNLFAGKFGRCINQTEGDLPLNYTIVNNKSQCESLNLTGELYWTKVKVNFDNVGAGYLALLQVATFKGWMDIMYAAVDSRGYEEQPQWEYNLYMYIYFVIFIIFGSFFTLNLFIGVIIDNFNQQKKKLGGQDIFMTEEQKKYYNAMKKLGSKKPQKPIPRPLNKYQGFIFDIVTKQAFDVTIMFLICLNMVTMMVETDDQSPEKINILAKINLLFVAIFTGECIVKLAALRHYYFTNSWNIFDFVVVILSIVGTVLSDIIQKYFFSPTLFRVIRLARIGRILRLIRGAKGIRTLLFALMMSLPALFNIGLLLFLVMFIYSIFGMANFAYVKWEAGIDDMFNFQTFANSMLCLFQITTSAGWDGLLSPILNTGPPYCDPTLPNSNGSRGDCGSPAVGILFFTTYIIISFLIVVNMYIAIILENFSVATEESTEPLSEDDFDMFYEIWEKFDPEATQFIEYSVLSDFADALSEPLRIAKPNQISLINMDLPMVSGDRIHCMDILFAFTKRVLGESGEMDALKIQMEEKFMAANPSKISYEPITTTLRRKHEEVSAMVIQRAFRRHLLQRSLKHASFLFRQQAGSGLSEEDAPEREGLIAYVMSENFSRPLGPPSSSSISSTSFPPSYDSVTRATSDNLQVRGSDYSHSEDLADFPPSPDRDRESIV
Sequence of hNav1.7 (Q15858 whole entry): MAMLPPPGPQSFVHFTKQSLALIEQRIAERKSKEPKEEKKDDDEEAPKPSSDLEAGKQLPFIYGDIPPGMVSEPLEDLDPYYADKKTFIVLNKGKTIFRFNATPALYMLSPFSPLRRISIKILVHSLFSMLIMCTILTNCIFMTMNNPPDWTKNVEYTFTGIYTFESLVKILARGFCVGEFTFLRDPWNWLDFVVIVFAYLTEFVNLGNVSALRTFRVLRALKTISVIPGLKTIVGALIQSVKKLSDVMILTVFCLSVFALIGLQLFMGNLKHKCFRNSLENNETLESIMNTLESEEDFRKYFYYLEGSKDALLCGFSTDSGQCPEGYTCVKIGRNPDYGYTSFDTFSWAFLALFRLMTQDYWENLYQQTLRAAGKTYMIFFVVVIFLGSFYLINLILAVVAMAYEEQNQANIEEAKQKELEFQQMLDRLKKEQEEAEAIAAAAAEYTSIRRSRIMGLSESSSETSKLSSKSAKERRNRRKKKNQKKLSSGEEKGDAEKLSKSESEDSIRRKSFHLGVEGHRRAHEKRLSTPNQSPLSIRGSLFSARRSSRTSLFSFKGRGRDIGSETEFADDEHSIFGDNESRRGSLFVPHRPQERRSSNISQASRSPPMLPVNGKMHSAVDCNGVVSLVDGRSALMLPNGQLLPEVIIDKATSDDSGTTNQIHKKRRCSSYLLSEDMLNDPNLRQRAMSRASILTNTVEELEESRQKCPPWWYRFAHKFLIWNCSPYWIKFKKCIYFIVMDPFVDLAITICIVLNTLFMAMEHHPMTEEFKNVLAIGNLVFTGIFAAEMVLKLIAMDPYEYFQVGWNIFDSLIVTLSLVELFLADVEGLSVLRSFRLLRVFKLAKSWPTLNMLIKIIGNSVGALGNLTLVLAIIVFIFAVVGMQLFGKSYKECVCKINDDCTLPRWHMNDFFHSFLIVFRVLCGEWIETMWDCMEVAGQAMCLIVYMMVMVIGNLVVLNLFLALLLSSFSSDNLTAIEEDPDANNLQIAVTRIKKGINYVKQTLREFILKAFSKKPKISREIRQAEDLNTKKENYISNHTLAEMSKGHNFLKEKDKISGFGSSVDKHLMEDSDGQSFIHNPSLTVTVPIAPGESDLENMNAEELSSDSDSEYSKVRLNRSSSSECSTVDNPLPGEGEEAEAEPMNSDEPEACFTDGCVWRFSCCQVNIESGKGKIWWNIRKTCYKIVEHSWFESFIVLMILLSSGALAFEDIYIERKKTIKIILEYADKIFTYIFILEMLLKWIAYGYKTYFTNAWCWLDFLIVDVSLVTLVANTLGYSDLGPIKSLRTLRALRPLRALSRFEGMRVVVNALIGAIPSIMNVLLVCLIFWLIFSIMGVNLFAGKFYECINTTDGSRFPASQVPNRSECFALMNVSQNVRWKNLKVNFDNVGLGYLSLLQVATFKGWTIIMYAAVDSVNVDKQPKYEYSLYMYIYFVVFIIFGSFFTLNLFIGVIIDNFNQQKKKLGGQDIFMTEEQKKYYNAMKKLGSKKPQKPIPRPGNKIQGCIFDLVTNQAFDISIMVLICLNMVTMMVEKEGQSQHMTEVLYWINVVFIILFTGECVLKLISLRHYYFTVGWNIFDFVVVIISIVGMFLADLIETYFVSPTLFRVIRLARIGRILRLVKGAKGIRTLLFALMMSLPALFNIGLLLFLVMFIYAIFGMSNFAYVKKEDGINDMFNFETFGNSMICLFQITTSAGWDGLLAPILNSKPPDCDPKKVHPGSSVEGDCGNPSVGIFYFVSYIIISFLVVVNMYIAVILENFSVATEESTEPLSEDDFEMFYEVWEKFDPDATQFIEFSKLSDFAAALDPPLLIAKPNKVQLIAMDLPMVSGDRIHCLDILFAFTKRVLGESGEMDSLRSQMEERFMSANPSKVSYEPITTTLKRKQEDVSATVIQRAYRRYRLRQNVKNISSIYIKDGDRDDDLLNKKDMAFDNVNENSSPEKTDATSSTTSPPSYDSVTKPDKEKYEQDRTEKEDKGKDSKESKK

Row | SMILES | IC50 [1] [µM] | IC50 [2] [µM] | IC50 [3] [µM] | IC50 [4] [µM] | Nav1.4/Nav1.7 [4]
1 | CC[C@H](C)[C@H](NC(=O)[C@@H](NC(=O)[C@H](CCCCN)NC(=O)[C@H](CCCNC(=N)N)NC(=O)[C@@H]1CSSC[C@@H]2NC(=O)[C@H](C)NC(=O)[C@H](C)NC(=O)[C@H](CCCCN)NC(=O)[C@H](CO)NC(=O)[C@H](CC(=O)O)NC(=O)[C@@H]3CSSC[C@H](NC(=O)[C@H](CCCNC(=N)N)NC(=O)[C@H](CC(C)C)NC(=O)CNC(=O)[C@H](CCC(=O)O)NC(=O)[C@H](CSSC[C@H](NC(=O)[C@@H](N)Cc4ccc(O)cc4)C(=O)N[C@@H](CCC(N)=O)C(=O)N[C@@H](CCCCN)C(=O)N[C@@H](Cc4c[nH]c5ccccc45)C(=O)N[C@@H](CCSC)C(=O)N[C@@H](Cc4c[nH]c5ccccc45)C(=O)N[C@@H]([C@@H](C)O)C(=O)N3)NC2=O)C(=O)N[C@@H](CCCCN)C(=O)N[C@@H](CC(C)C)C(=O)N[C@@H](Cc2c[nH]c3ccccc23)C(=O)N1)[C@@H](C)CC)C(N)=O [compound 13] | 0.079 | > 5 | 0.3 | 0.57 | 7
2 | CC[C@H](C)[C@H](NC(=O)[C@@H](NC(=O)[C@H](CCCCN)NC(=O)[C@H](CCCNC(=N)N)NC(=O)[C@@H]1CSSC[C@@H]2NC(=O)[C@H](C)NC(=O)[C@H](CCCNC(=N)N)NC(=O)[C@H](CCCCN)NC(=O)[C@H](CO)NC(=O)[C@H](CC(=O)O)NC(=O)[C@@H]3CSSC[C@H](NC(=O)[C@H](CCCNC(=N)N)NC(=O)[C@H](CC(C)C)NC(=O)CNC(=O)[C@H](C)NC(=O)[C@H](CSSC[C@H](NC(=O)[C@@H](N)Cc4ccc(O)cc4)C(=O)N[C@@H](CCC(N)=O)C(=O)N[C@@H](CCCCN)C(=O)N[C@@H](Cc4c[nH]c5ccccc45)C(=O)N[C@@H](CCSC)C(=O)N[C@@H](Cc4c[nH]c5ccccc45)C(=O)N[C@@H]([C@@H](C)O)C(=O)N3)NC2=O)C(=O)N[C@@H](CCCCN)C(=O)N[C@@H](CC(C)C)C(=O)N[C@@H](Cc2c[nH]c3ccccc23)C(=O)N1)[C@@H](C)CC)C(N)=O [compound 14] | 0.008 | 2 | 0.08 | 0.06 | 8
3 | CC[C@H](C)[C@H](NC(=O)[C@@H](NC(=O)[C@H](CCCCN)NC(=O)[C@H](CCCNC(=N)N)NC(=O)[C@@H]1CSSC[C@@H]2NC(=O)[C@H](C)NC(=O)[C@H](CCCNC(=N)N)NC(=O)[C@H](CCCCN)NC(=O)[C@H](CO)NC(=O)[C@H](CC(=O)O)NC(=O)[C@@H]3CSSC[C@H](NC(=O)[C@H](CCCNC(=N)N)NC(=O)[C@H](CC(C)C)NC(=O)[C@H](C)NC(=O)[C@H](CCC(=O)O)NC(=O)[C@H](CSSC[C@H](NC(=O)[C@@H](N)Cc4ccc(O)cc4)C(=O)N[C@@H](CCC(N)=O)C(=O)N[C@@H](CCCCN)C(=O)N[C@@H](Cc4c[nH]c5ccccc45)C(=O)N[C@@H](CCSC)C(=O)N[C@@H](Cc4c[nH]c5ccccc45)C(=O)N[C@@H]([C@@H](C)O)C(=O)N3)NC2=O)C(=O)N[C@@H](CCCCN)C(=O)N[C@@H](CC(C)C)C(=O)N[C@@H](Cc2c[nH]c3ccccc23)C(=O)N1)[C@@H](C)CC)C(N)=O [compound 15] | 0.04 | > 5 | 0.24 | 0.26 | 7
4 | CC[C@H](C)[C@H](NC(=O)[C@@H](NC(=O)[C@H](CCCCN)NC(=O)[C@H](CCCNC(=N)N)NC(=O)[C@@H]1CSSC[C@@H]2NC(=O)[C@H](C)NC(=O)[C@H](CCCNC(=N)N)NC(=O)[C@H](CCCCN)NC(=O)[C@H](CO)NC(=O)[C@H](CC(=O)O)NC(=O)[C@@H]3CSSC[C@H](NC(=O)[C@H](CCCNC(=N)N)NC(=O)[C@H](CC(C)C)NC(=O)CNC(=O)[C@H](CCC(=O)O)NC(=O)[C@H](CSSC[C@H](NC(=O)[C@@H](N)Cc4ccc(O)cc4)C(=O)N[C@@H](CCC(N)=O)C(=O)N[C@@H](CCCCN)C(=O)N[C@@H](Cc4c[nH]c5ccccc45)C(=O)N[C@@H](CCSC)C(=O)N[C@@H](Cc4c[nH]c5ccccc45)C(=O)N[C@@H]([C@@H](C)O)C(=O)N3)NC2=O)C(=O)N[C@@H](C)C(=O)N[C@@H](CC(C)C)C(=O)N[C@@H](Cc2c[nH]c3ccccc23)C(=O)N1)[C@@H](C)CC)C(N)=O [compound 18] | 0.062 | > 5 | 0.52 | 0.41 | 7
5 | CC[C@H](C)[C@H](NC(=O)[C@@H](NC(=O)[C@H](CCCCN)NC(=O)[C@H](CCCNC(=N)N)NC(=O)[C@@H]1CSSC[C@@H]2NC(=O)[C@H](C)NC(=O)[C@H](CCCNC(=N)N)NC(=O)[C@H](CCCCN)NC(=O)[C@H](CO)NC(=O)[C@H](CC(=O)O)NC(=O)[C@@H]3CSSC[C@H](NC(=O)[C@H](CCCNC(=N)N)NC(=O)[C@H](CC(C)C)NC(=O)CNC(=O)[C@H](CCC(=O)O)NC(=O)[C@H](CSSC[C@H](NC(=O)[C@@H](N)Cc4ccc(O)cc4)C(=O)N[C@@H](CCC(N)=O)C(=O)N[C@@H](CCCCN)C(=O)N[C@@H](Cc4c[nH]c5ccccc45)C(=O)N[C@@H](CCSC)C(=O)N[C@@H](Cc4c[nH]c5ccccc45)C(=O)N[C@@H]([C@@H](C)O)C(=O)N3)NC2=O)C(=O)N[C@@H](CCCCN)C(=O)N[C@@H](C)C(=O)N[C@@H](Cc2c[nH]c3ccccc23)C(=O)N1)[C@@H](C)CC)C(N)=O [compound 19] | 0.3 | > 5 | 0.44 | 0.34 | 1
6 | CC[C@H](C)[C@H](NC(=O)[C@H](C)NC(=O)[C@H](CCCCN)NC(=O)[C@H](CCCNC(=N)N)NC(=O)[C@@H]1CSSC[C@@H]2NC(=O)[C@H](C)NC(=O)[C@H](CCCNC(=N)N)NC(=O)[C@H](CCCCN)NC(=O)[C@H](CO)NC(=O)[C@H](CC(=O)O)NC(=O)[C@@H]3CSSC[C@H](NC(=O)[C@H](CCCNC(=N)N)NC(=O)[C@H](CC(C)C)NC(=O)CNC(=O)[C@H](CCC(=O)O)NC(=O)[C@H](CSSC[C@H](NC(=O)[C@@H](N)Cc4ccc(O)cc4)C(=O)N[C@@H](CCC(N)=O)C(=O)N[C@@H](CCCCN)C(=O)N[C@@H](Cc4c[nH]c5ccccc45)C(=O)N[C@@H](CCSC)C(=O)N[C@@H](Cc4c[nH]c5ccccc45)C(=O)N[C@@H]([C@@H](C)O)C(=O)N3)NC2=O)C(=O)N[C@@H](CCCCN)C(=O)N[C@@H](CC(C)C)C(=O)N[C@@H](Cc2c[nH]c3ccccc23)C(=O)N1)C(N)=O [compound 23] | 0.03 | > 5 | 0.25 | 0.29 | 10
7 | CC[C@H](C)[C@H](NC(=O)[C@H](CCCCN)NC(=O)[C@H](CCCNC(=N)N)NC(=O)[C@@H]1CSSC[C@@H]2NC(=O)[C@H](C)NC(=O)[C@H](CCCNC(=N)N)NC(=O)[C@H](CCCCN)NC(=O)[C@H](CO)NC(=O)[C@H](CC(=O)O)NC(=O)[C@@H]3CSSC[C@H](NC(=O)[C@H](CCCNC(=N)N)NC(=O)[C@H](CC(C)C)NC(=O)CNC(=O)[C@H](CCC(=O)O)NC(=O)[C@H](CSSC[C@H](NC(=O)[C@@H](N)Cc4ccc(O)cc4)C(=O)N[C@@H](CCC(N)=O)C(=O)N[C@@H](CCCCN)C(=O)N[C@@H](Cc4c[nH]c5ccccc45)C(=O)N[C@@H](CCSC)C(=O)N[C@@H](Cc4c[nH]c5ccccc45)C(=O)N[C@@H]([C@@H](C)O)C(=O)N3)NC2=O)C(=O)N[C@@H](CCCCN)C(=O)N[C@@H](CC(C)C)C(=O)N[C@@H](Cc2c[nH]c3ccccc23)C(=O)N1)C(=O)N[C@@H](C)C(N)=O [compound 24] | 0.053 | > 5 | 0.45 | 0.27 | 5
8 | CC[C@H](C)[C@H](NC(=O)[C@@H](NC(=O)[C@H](CCCCN)NC(=O)[C@H](CCCNC(=N)N)NC(=O)[C@@H]1CSSC[C@@H]2NC(=O)[C@H](C)NC(=O)[C@H](CCCNC(=N)N)NC(=O)[C@H](CCCCN)NC(=O)[C@H](CO)NC(=O)[C@H](CC(=O)O)NC(=O)[C@@H]3CSSC[C@H](NC(=O)[C@H](CCCNC(=N)N)NC(=O)[C@H](CC(C)C)NC(=O)CNC(=O)[C@H](CCC(=O)O)NC(=O)[C@H](CSSC[C@H](NC(=O)[C@@H](N)Cc4cccc5ccccc45)C(=O)N[C@@H](CCC(N)=O)C(=O)N[C@@H](CCCCN)C(=O)N[C@@H](Cc4c[nH]c5ccccc45)C(=O)N[C@@H](CCSC)C(=O)N[C@@H](Cc4c[nH]c5ccccc45)C(=O)N[C@@H]([C@@H](C)O)C(=O)N3)NC2=O)C(=O)N[C@@H](CCCCN)C(=O)N[C@@H](CC(C)C)C(=O)N[C@@H](Cc2c[nH]c3ccccc23)C(=O)N1)[C@@H](C)CC)C(N)=O [compound 25] | 0.008 | 2.3 | 0.07 | 0.09 | 10
9 | CC[C@H](C)[C@H](NC(=O)[C@@H](NC(=O)[C@H](CCCCN)NC(=O)[C@H](CCCNC(=N)N)NC(=O)[C@@H]1CSSC[C@@H]2NC(=O)[C@H](C)NC(=O)[C@H](CCCNC(=N)N)NC(=O)[C@H](CCCCN)NC(=O)[C@H](CO)NC(=O)[C@H](CC(=O)O)NC(=O)[C@@H]3CSSC[C@H](NC(=O)[C@H](CCCNC(=N)N)NC(=O)[C@H](CC(C)C)NC(=O)CNC(=O)[C@H](CCC(=O)O)NC(=O)[C@H](CSSC[C@H](NC(=O)[C@@H](N)Cc4ccc(O)cc4)C(=O)N[C@@H](CCC(N)=O)C(=O)N[C@@H](CCCCN)C(=O)N[C@@H](Cc4c[nH]c5ccccc45)C(=O)N[C@@H](CCSC)C(=O)N[C@@H](Cc4c[nH]c5ccccc45)C(=O)N[C@@H]([C@@H](C)O)C(=O)N3)NC2=O)C(=O)N[C@@H](CCCCN)C(=O)N[C@@H](CC(C)C)C(=O)N[C@@H](Cc2cccc3ccccc23)C(=O)N1)[C@@H](C)CC)C(N)=O [compound 43] | 0.075 | > 5 | 0.46 | 0.33 | 4
